Experimental data published in PubChem BioAssay (NCI).
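Briefly, cells in 96-well plates were exposed to five compound concentrations for 48 h, and endpoints were estimated by linear interpolation. GI50 marks 50% less growth. The concentration for full growth arrest is given as TGI.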

Tests used:
Test in all cases: inhibition of tumour cell growth, NCI panel, 48 h
MOLT-4 leukemia = test system: MOLT-4 leukemia
NCI-H23 lung = test system: NCI-H23 lung
SK-MEL-28 melanoma = test system: SK-MEL-28 melanoma
A498 renal = test system: A498 renal
SF-295 CNS = test system: SF-295 CNS
OVCAR-5 ovarian = test system: OVCAR-5 ovarian
SW-620 colon = test system: SW-620 colon
OVCAR-8 ovarian = test system: OVCAR-8 ovarian
NCI-H522 lung = test system: NCI-H522 lung
TK-10 renal = test system: TK-10 renal

Structure (SMILES) | TGI (MOLT-4 leukemia) [µM] | TGI (NCI-H23 lung) [µM] | TGI (SK-MEL-28 melanoma) [µM] | TGI (A498 renal) [µM] | TGI (SF-295 CNS) [µM] | TGI (OVCAR-5 ovarian) [µM] | TGI (SW-620 colon) [µM] | TGI (OVCAR-8 ovarian) [µM] | TGI (NCI-H522 lung) [µM] | TGI (TK-10 renal) [µM] | GI50 (MOLT-4 leukemia) [µM] | GI50 (NCI-H23 lung) [µM] | GI50 (SK-MEL-28 melanoma) [µM] | GI50 (A498 renal) [µM] | GI50 (SF-295 CNS) [µM] | GI50 (OVCAR-5 ovarian) [µM] | GI50 (SW-620 colon) [µM] | GI50 (OVCAR-8 ovarian) [µM] | GI50 (NCI-H522 lung) [µM] | GI50 (TK-10 renal) [µM]
CC1=C(C(=O)Nc2cccc(Cl)c2)C(c2ccccc2F)C(C(=O)Nc2cccc(Cl)c2)=C(C)N1 | 14.7 | 26.5 | 23 | 38.6 | 36.8 | 37.2 | 64.6 | 46.9 | 23.1 | 68.2 |  |  |  |  |  |  |  |  |  | 
CCC[n+]1cc2cc(OC)c(OC)cc2c2c1-c1cc3c(cc1C2)OCO3 | 11.4 | 13.2 | 10.6 | 50.9 | 26.6 | 67.8 | 23.7 | 6.23 | 1.71 | 58.9 | 1.92 | 2.34 | 3.03 | 17.6 | 8.1 | 32.9 | 2.83 | 2.18 | 0.0792 | 22.6
COc1ccc2[nH]c(O)c(C(=Nc3ccc(N(C)C(=O)CN4CCN(C)CC4)cc3)c3ccccc3)c2c1 | 4.99 | 12.2 | 6.12 | 3.45 | 15.8 | 16.4 | 11.4 | 14 | 8.96 | 7.08 | 1.45 | 1.73 | 2.11 | 1.64 | 4.65 | 2.68 | 1.78 | 3.24 | 2.52 | 1.99
COc1ccc(Cn2cc3c(c2)-c2oncc2CC3)cc1 | 22.2 | > 67.5 | > 52.8 | 9.74 | 35.9 | > 100 | > 100 | > 100 | 16.7 | 86.8 | 2.82 | 5.85 | 4.08 | 1.74 | 4.08 | 8.6 | 2.8 | 9.34 | 3.24 | 8.76
Cc1cc(S(=O)(=O)NC#N)c(S/C(=N\Nc2ccc([N+](=O)[O-])cc2)c2ccc(Cl)cc2)cc1Cl | > 100 | > 100 | > 100 | 2.3 | 65.5 | > 100 | 52.1 | > 100 | 89.5 | > 100 | 19.5 | 77.9 | 31.2 |  | 22.7 | 44 | 21.1 | 31.7 | 21.8 | 25
Fc1cc2[nH]ncc2c2c3c(c(-c4cn[nH]c4C(F)(F)F)nc12)C1CCC3C1 (centres undefined) | 4.31 | 6 | 2.84 | 1.25 | 4.94 | 3.72 | 5.13 | 6.74 | 3.38 | 4.08 | 0.99 | 1.27 | 0.889 | 0.591 | 1.21 | 1.19 | 0.982 | 1.21 | 0.906 | 0.744
Cc1cc2c(cc1C)N(C(=O)CCl)CCN2C(=O)CCl | 1.74 | 3.8 | 2.96 | 3.29 | 4.13 | 3.08 | 0.42 | 6.13 | 0.348 | 4.76 | 0.367 | 1.76 | 1.56 | 1.79 | 1.96 | 1.5 | 0.204 | 0.644 | 0.178 | 1.79
